Experimental data: paper PMC9137900, “Engineering Collariella virescens Peroxygenase for Epoxides Production from Vegetable Oil” (Antioxidants, 2022)
Changes are numbered by the printed parent chain.

Experiments:
Assay type in all cases: biochemical
[1] = target: T1, rCviUPO (native, non-mutated recombinant CviUPO) (Achaetomiella virescens, UniProt Z9FBJ6W4Y2); assay: GC-MS quantification of oxygenated products, […] min reactions; settings: 24 mM H2O2, 50 mM phosphate pH 7, 20% acetone
T1 construct: codon-optimized gene in pET23a, expressed in E. coli as active cytosolic enzyme without purification tag; heme-thiolate (EC 1.11.2.1); purified by cation exchange and Superdex 75
T1 sequence (Z9FBJ6W4Y2 1-226): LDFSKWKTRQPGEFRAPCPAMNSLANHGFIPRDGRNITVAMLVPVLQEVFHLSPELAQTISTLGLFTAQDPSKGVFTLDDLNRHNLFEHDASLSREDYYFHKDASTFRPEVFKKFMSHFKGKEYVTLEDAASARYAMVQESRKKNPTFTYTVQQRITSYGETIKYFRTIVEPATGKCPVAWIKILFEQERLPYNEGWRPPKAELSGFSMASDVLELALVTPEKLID

[2] = target: T2, rCviUPO (native, non-mutated recombinant CviUPO) (Achaetomiella virescens, UniProt Z9FBJ6W4Y2, F87A/T157A, form not given); assay: as above; settings: 24 mM H2O2, 50 mM phosphate pH 7, 20% acetone; substrate-inhibition model
T2 construct: codon-optimized gene in pET23a, expressed in E. coli as active cytosolic enzyme without purification tag; heme-thiolate (EC 1.11.2.1); purified by cation exchange and Superdex 75
T2 sequence (Z9FBJ6W4Y2 1-226 F87A/T157A): T1 sequence (Z9FBJ6W4Y2 1-226) with F87A, T157A

[3] = target: T3, rCviUPO (native, non-mutated recombinant CviUPO) (Achaetomiella virescens, UniProt Z9FBJ6W4Y2, I60A/L63A/F87A/T157A, form not given); assay: as above; settings: 24 mM H2O2, 50 mM phosphate pH 7, 20% acetone; substrate-inhibition model
T3 construct: codon-optimized gene in pET23a, expressed in E. coli as active cytosolic enzyme without purification tag; heme-thiolate (EC 1.11.2.1); purified by cation exchange and Superdex 75
T3 sequence (Z9FBJ6W4Y2 1-226 I60A/L63A/F87A/T157A): T1 sequence (Z9FBJ6W4Y2 1-226) with I60A, L63A, F87A, T157A

[4] = target: T4, rCviUPO (native, non-mutated recombinant CviUPO) (Achaetomiella virescens, UniProt Z9FBJ6W4Y2, T157A); assay: as above; settings: 24 mM H2O2, 50 mM phosphate pH 7, 20% acetone
T4 construct: codon-optimized gene in pET23a, expressed in E. coli as active cytosolic enzyme without purification tag; heme-thiolate (EC 1.11.2.1); purified by cation exchange and Superdex 75
T4 sequence (Z9FBJ6W4Y2 1-226 T157A): T1 sequence (Z9FBJ6W4Y2 1-226) with T157A

[5] = target: T5, rCviUPO (native, non-mutated recombinant CviUPO) (Achaetomiella virescens, UniProt Z9FBJ6W4Y2, F87A); assay: as above; settings: substrate inhibition constant; 24 mM H2O2, 50 mM phosphate pH 7, 20% acetone
T5 construct: codon-optimized gene in pET23a, expressed in E. coli as active cytosolic enzyme without purification tag; heme-thiolate (EC 1.11.2.1); purified by cation exchange and Superdex 75
T5 sequence (Z9FBJ6W4Y2 1-226 F87A): T1 sequence (Z9FBJ6W4Y2 1-226) with F87A

[6] = target: T2, rCviUPO (native, non-mutated recombinant CviUPO); assay: as above; settings: substrate inhibition constant; 24 mM H2O2, 50 mM phosphate pH 7, 20% acetone
[7] = target: T3, rCviUPO (native, non-mutated recombinant CviUPO); assay: as above; settings: substrate inhibition constant; 24 mM H2O2, 50 mM phosphate pH 7, 20% acetone
[8] = target: T5, rCviUPO (native, non-mutated recombinant CviUPO); assay: as above; settings: 24 mM H2O2, 50 mM phosphate pH 7, 20% acetone; substrate-inhibition model
[9] = target: T2, rCviUPO (native, non-mutated recombinant CviUPO); assay: spectrophotometric initial rates, […] nm; settings: 24 mM H2O2, 0.1 M acetate pH 3 or 5

SMILES | Km [1] [µM] | Km [2] [µM] | Km [3] [µM] | Km [4] [µM] | ki [5] [µM] | ki [6] [µM] | ki [7] [µM] | Km [8] [µM] | Km [9] [µM]
CCCCCCCC/C=C\CCCCCCCC(=O)O [C18:1, oleic acid] | 58.8 ± 6 | 51.6 ± 5.4 | 399 ± 94.6 | 89 ± 16.4 | 1120 ± 400 | 2900 ± 610 | 1360 ± 710 | 278 ± 49 | 
COc1ccc(CO)cc1OC [veratryl alcohol] |  |  |  |  |  |  |  |  | 15000
